pIC50: −log10 of the molar value. Converted amounts (≈) assume the structure as drawn.
Key:
[1] = Equilibrium solubility in pH 7.0 phosphate buffer by LC/MS method; format: physicochemical
Cathepsin S [2] = target: T1, Cathepsin S (Homo sapiens, UniProt P25774); test: Inhibition of cathepsin S in human JY cells assessed as invariant chain-li degradation; format: cell-based
Cathepsin S [3] = target: T1, Cathepsin S; test: Inhibition of human cathepsin S
[4] = target: Voltage-gated inwardly rectifying potassium channel KCNH2 (Homo sapiens, UniProt Q12809); test: Inhibition of human ERG by patch clamp assay
Chain of Voltage-gated inwardly rectifying potassium channel KCNH2 (Q12809 whole entry): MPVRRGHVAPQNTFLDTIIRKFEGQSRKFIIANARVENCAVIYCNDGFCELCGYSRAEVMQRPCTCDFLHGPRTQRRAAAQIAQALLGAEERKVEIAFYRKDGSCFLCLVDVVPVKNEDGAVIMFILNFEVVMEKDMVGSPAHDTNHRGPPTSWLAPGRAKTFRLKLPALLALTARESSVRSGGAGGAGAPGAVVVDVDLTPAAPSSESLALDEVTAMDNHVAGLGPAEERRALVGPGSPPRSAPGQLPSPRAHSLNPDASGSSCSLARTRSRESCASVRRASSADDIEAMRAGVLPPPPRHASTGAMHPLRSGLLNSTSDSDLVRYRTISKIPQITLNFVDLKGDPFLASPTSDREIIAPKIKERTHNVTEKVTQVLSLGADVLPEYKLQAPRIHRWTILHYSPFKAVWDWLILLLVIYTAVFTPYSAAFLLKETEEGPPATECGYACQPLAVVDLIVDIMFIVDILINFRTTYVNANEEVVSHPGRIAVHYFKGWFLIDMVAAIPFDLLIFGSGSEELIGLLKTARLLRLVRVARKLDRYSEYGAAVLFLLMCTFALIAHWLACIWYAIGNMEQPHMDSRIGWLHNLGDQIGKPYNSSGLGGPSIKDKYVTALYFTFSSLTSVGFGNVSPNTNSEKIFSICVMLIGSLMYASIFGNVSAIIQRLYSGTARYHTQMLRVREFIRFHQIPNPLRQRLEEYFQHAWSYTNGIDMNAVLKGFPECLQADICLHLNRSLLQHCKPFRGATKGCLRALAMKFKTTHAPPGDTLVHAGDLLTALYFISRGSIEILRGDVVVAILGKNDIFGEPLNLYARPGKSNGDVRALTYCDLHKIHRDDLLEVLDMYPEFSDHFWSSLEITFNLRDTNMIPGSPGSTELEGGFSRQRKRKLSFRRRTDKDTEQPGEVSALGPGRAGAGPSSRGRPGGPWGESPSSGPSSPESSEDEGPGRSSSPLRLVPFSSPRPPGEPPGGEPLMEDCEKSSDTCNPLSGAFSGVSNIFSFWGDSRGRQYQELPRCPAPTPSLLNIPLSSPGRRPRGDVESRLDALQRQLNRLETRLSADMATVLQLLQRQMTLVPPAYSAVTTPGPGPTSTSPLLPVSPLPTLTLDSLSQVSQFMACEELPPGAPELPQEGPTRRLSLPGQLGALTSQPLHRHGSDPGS

T1 sequence (P25774 whole entry): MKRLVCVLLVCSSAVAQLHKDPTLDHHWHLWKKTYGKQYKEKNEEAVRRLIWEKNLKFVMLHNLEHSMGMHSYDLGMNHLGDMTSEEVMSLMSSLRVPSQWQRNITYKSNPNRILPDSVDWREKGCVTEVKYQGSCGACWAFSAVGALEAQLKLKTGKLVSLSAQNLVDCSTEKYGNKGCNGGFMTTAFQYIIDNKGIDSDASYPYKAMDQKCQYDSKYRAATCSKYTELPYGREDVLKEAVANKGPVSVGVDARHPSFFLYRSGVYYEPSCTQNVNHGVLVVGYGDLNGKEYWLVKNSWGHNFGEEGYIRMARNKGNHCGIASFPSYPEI

SMILES | solubility thermodynamic [1] [µM] | pIC50 (Cathepsin S [2]) | pIC50 (Cathepsin S [3]) | inhibition (INH) [4]
NC(=O)C(=O)N1CCc2c(c(-c3ccc(C(F)(F)F)c(SCCN4CCC(F)CC4)c3)nn2C[C@@H](O)CN2CCCCC2)C1 | < 1 |  |  | 
NC(=O)C(=O)N1CCc2c(c(-c3ccc(Cl)c(C#Cc4ccc(CNCc5ccc(Cl)cc5)cc4)c3)nn2CCCN2CCN(c3ccccc3)CC2)C1 | < 1 | 6.25 | 8.00 | 
NC(=O)C(=O)N1CCc2c(c(-c3ccc(Cl)c(C#Cc4ccc(CNCc5ccc(Cl)cc5)cc4)c3)nn2CCCN2CCSCC2)C1 | < 1 | 6.57 |  | 
C[C@@H]1COCCN1CCCn1nc(-c2ccc(Cl)c(C#Cc3ccc(CNCc4ccc(Cl)cc4)cc3)c2)c2c1CCN(C(N)=O)C2 | 3 (≈ 2.02 µg/mL) | 5.81 | 6.96 | 
C[C@@H]1COCCN1CCCn1nc(-c2ccc(Cl)c(C#Cc3ccc(CNCc4ccc(Cl)cc4)cc3)c2)c2c1CCN(C(=O)C(N)=O)C2 | < 1 | 6.02 | 7.30 | Not Active
NC(=O)N1CCc2c(c(-c3ccc(Cl)c(C#Cc4ccc(COCc5cccnc5)cc4)c3)nn2CCCN2CCSCC2)C1 |  | < 5.00 |  | 
CN(C)S(=O)(=O)N1CCc2c(c(-c3ccc(Cl)c(C#Cc4ccc(CNCc5ccc(Cl)cc5)cc4)c3)nn2CCCN2CCOCC2)C1 |  | 5.30 |  | 
CC(=O)NCC(=O)N1CCc2c(c(-c3ccc(Cl)c(C#Cc4ccc(CNCc5ccc(Cl)cc5)cc4)c3)nn2CCCN2CCOCC2)C1 |  | 5.96 |  | 
CN(C)C(=O)C(=O)N1CCc2c(c(-c3ccc(Cl)c(C#Cc4ccc(CNCc5ccc(Cl)cc5)cc4)c3)nn2CCCN2CCOCC2)C1 | < 1 | 5.76 |  | 
NC(=O)N1CCc2c(c(-c3ccc(Cl)c(C#Cc4ccc(CNCc5ccc(Cl)cc5)cc4)c3)nn2CCCN2CCCCC2)C1 |  | 6.70 |  | 
NC(=O)C(=O)N1CCc2c(c(-c3ccc(Cl)c(C#Cc4ccc(CNCc5ccc(Cl)cc5)cc4)c3)nn2CCCN2CCCCC2)C1 |  | 6.52 |  | 
NC(=O)N1CCc2c(c(-c3ccc(Cl)c(C#Cc4ccc(CNCc5ccc(Cl)cc5)cc4)c3)nn2CCCN2CCC(C(F)(F)F)CC2)C1 | < 1 | 6.16 | 7.22 | 
NC(=O)C(=O)N1CCc2c(c(-c3ccc(Cl)c(C#Cc4ccc(CNCc5ccc(Cl)cc5)cc4)c3)nn2CCCN2CCC(C(F)(F)F)CC2)C1 | < 1 | 5.75 |  | 
NC(=O)N1CCc2c(c(-c3ccc(Cl)c(C#Cc4ccc(CNCc5ccc(Cl)cc5)cc4)c3)nn2CCCN2CCN(c3ccccc3)CC2)C1 |  | 6.15 |  | 
CS(=O)(=O)N1CCc2c(c(-c3ccc(Cl)c(C#Cc4ccc(CNCc5ccc(Cl)cc5)cc4)c3)nn2CCCN2CCOCC2)C1 | < 1 |  |  | 

Now from value to molecule, other results behind:

solubility thermodynamic [1] [µM] | pIC50 (Cathepsin S [2]) | pIC50 (Cathepsin S [3]) | SMILES | inhibition (INH) [4]
66 (≈ 44 µg/mL) | 6.20 |  | NC(=O)N1CCc2c(c(-c3ccc(Cl)c(C#Cc4ccc(Cl)c(C(=O)N5CCNCC5)c4)c3)nn2CCCN2CCSCC2)C1 | 
< 1 | 6.06 | 7.15 | NC(=O)N1CCc2c(c(-c3ccc(Cl)c(C#Cc4ccc(CNCc5ccc(Cl)cc5)cc4)c3)nn2CCCN2CCSCC2)C1 | Not Active
 | < 5.00 |  | NC(=O)N1CCc2c(c(-c3ccc(Cl)c(C#Cc4ccc(C(=O)NCc5ccc(Cl)cc5)cc4)c3)nn2CCCN2CCSCC2)C1 | 
 | < 5.00 |  | NC(=O)N1CCc2c(c(-c3ccc(Cl)c(C#Cc4ccc(C(=O)NCc5cccnc5)cc4)c3)nn2CCCN2CCSCC2)C1 | 
81 (≈ 52.3 µg/mL) | < 5.00 |  | NC(=O)N1CCc2c(c(-c3ccc(Cl)c(C#Cc4ccc(C(=O)NC[C@@H]5CCCN5)cc4)c3)nn2CCCN2CCSCC2)C1 | 
175 (≈ 119 µg/mL) | 6.21 |  | NC(=O)N1CCc2c(c(-c3ccc(Cl)c(C#Cc4ccc(Cl)c(C(=O)NC[C@@H]5CCCN5)c4)c3)nn2CCCN2CCSCC2)C1 | 
9 (≈ 6.4 µg/mL) | 6.21 |  | NC(=O)N1CCc2c(c(-c3ccc(Cl)c(C#Cc4ccc(Cl)c(C(=O)NCCN5CCOCC5)c4)c3)nn2CCCN2CCSCC2)C1 | 
< 1 | 6.29 | 7.22 | NC(=O)C(=O)N1CCc2c(c(-c3ccc(Cl)c(C#Cc4ccc(CNCc5ccc(Cl)cc5)cc4)c3)nn2CCCN2CCOCC2)C1 | 
 | 6.36 |  | NC(=O)N1CCc2c(c(-c3ccc(Cl)c(C#Cc4ccc(CNCc5ccc(Cl)cc5)cc4)c3)nn2CCCN2CCOCC2)C1 | 
46 (≈ 29.9 µg/mL) | < 5.00 |  | NC(=O)N1CCc2c(c(-c3ccc(Cl)c(C#Cc4ccc(COCC5CNCCO5)cc4)c3)nn2CCCN2CCSCC2)C1 (racemic) | 
 | 6.29 |  | NC(=O)N1CCc2c(c(-c3ccc(Cl)c(C#Cc4ccc(Cl)c(C(=O)NCC5CCCNC5)c4)c3)nn2CCCN2CCSCC2)C1 (racemic) | 
